Measurements from patent US8404683B2, “Inhibitors of the interaction between MDM2 and P53” (Janssen Pharmaceutical N.V., priority 2004, dated 2013).

System: U87MG cells
Test: Proliferation assay (MTT-based) on U87MG tumour cells
Details: Homo sapiens, U-87 MG, 96 h, 4 days of incubation, negative log value of the IC50-value, read-out: cell proliferation pIC50 (converted)
Description: U87MG cells are human glioblastoma cells with wild type p53. In this cell line MDM2 tightly controls p53 expression.
Cellular activity of the compounds of formula (I) was determined on U87MG tumour cells using a colorimetric assay for cell toxicity or survival (see example C.2).
All compounds tested were dissolved in DMSO and further dilutions were made in culture medium. Final DMSO concentrations never exceeded 0.1% (v/v) in cell proliferation assays. Controls contained U87MG cells and DMSO without compound and blanks contained DMSO but no cells.
U87MG cells were seeded in 96-well cell culture plates at 3000 cells/well/100 μl. 24 hours later, medium was changed and compound and/or solvent were added to a final volume of 200 μl. Following 4 days of incubation, medium was replaced by 200 μl fresh medium and cell growth was assessed using a MTT-based assay. Therefore, 25 μl of the MTT solution (0.5% MTT research grade from Serva in phosphate-buffered saline) was added to each well and the cells were further incubated for 2 hours at 37° C. The medium was then carefully aspirated and the blue MTT-formazan product was dissolved by adding to each well 25 μl 0.1 M glycin and 100 μl DMSO. The plates were shaken for another 10 min on a micro plate shaker before reading absorbance at 540 nm by a Biorad micro plate reader.
Within an experiment, the results for each experimental condition are the mean of 3 replicate wells. For initial screening purposes, compounds were tested at a single fixed concentration of 10^−5 M. For active compounds, the experiments were repeated to establish full concentration-response curves. For each experiment, controls (containing no drug) and a blank incubation (containing no cells or drugs) were run in parallel. The blank value was subtracted from all control and sample values. For each sample, the mean value for cell growth (in absorbance units) was expressed as a percentage of the mean value for cell growth of the control. When appropriate, IC50-values (concentration of the drug, needed to reduce cell growth to 50% of the control) were computed using probit analysis for graded data (Finney, D. J., Probit Analyses, 2nd Ed. Chapter 10, Graded Responses, Cambridge University Press, Cambridge 1962). Herein the effects of test compounds are expressed as pIC50 (the negative log value of the IC50-value) (see table F-2).

Compound	IC50
COC(=O)c1cc(Nc2ccc(NCCc3c[nH]c4cc(OC)ccc34)cc2)ccn1 [Compound 178]	1580 nM
COc1ccc2nccc(Nc3ccc(NCCc4c[nH]c5ccccc45)cc3)c2c1 [Compound 24]	< 10 nM
OCc1cc(Nc2ccc(NCCc3c[nH]c4cc(F)ccc34)cc2)ccn1 [Compound 193]	1000 nM
CCNCc1cc(Nc2ccc(NCCc3c[nH]c4ccccc34)cc2)ccn1 [Compound 155]	2000 nM
c1ccc(CCCNCc2cc(Nc3ccc(NCCc4c[nH]c5ccccc45)cc3)ccn2)cc1 [Compound 164]	2510 nM
COc1cccc2c(Nc3ccc(NCCc4c[nH]c5ccccc45)cc3)ccnc12 [Compound 21]	10 nM
COC(C)c1cc(Nc2ccc(NCCc3c[nH]c4ccccc34)cc2)ccn1 (stereo not shown) [Compound 150]	3160 nM
COC(=O)COCc1cc(Nc2ccc(NCCc3c[nH]c4ccccc34)cc2)ccn1 [Compound 98]	3980 nM
Cn1cc(CCNc2ccc(Nc3ccnc4ccccc34)cc2)c2ccccc21 [Compound 28]	200 nM
c1ccc(COCc2cc(Nc3ccc(NCCc4c[nH]c5ccccc45)cc3)ccn2)cc1 [Compound 167]	3980 nM
c1ccc2c(CCCN(CCCc3c[nH]c4ccccc34)Cc3ccc(Nc4ccncc4)cc3)c[nH]c2c1 [Compound 73]	501 nM
CCOc1cc(Nc2ccnc(C(C)O)c2)ccc1NCCc1c[nH]c2cc(OC)ccc12 (stereo not shown) [Compound 205]	794 nM
O=C(C(Cc1c[nH]c2ccccc12)Nc1ccc(Nc2ccncc2)cc1)N1CCN(CCOCCO)CC1 (stereo not shown) [Compound 116]	> 10000 nM
CC(NCCO)c1cc(Nc2ccc(NCCc3c[nH]c4ccccc34)cc2)ccn1 (stereo not shown) [Compound 147]	5010 nM
CC(NCCc1ccccc1)c1cc(Nc2ccc(NCCc3c[nH]c4ccccc34)cc2)ccn1 (stereo not shown) [Compound 145]	2510 nM
CCN(CC)Cc1cc(Nc2ccc(NCCc3c[nH]c4ccccc34)cc2)ccn1 [Compound 161]	1000 nM
O=C(C(Cc1c[nH]c2ccccc12)Nc1ccc(Nc2ccncc2)cc1)N1CCC(CO)C1 (stereo not shown) [Compound 209]	> 10000 nM
OCCOCc1cc(Nc2ccc(NCCc3c[nH]c4ccccc34)cc2)ccn1 [Compound 99]	2510 nM
OCC(Cc1c[nH]c2ccccc12)Nc1ccc(Nc2ccncc2)cc1 (stereo not shown) [Compound 48]	158 nM
c1ccc2c(CCNc3ccc(Nc4ccncc4)cc3)c[nH]c2c1 [Compound 36]	200 nM
OCCCNCc1cc(Nc2ccc(NCCc3c[nH]c4ccccc34)cc2)ccn1 [Compound 156]	3160 nM
OCc1cc(Nc2ccc(NCCc3c[nH]c4ccccc34)cc2)ccn1 [Compound 37]	158 nM
CCOc1cc(Nc2ccncc2)ccc1NCCc1c[nH]c2cc(OC)ccc12 [Compound 177]	50.1 nM
O=[N+]([O-])c1cccc2c(Nc3ccc(NCCc4c[nH]c5ccccc45)cc3)ccnc12 [Compound 23]	398 nM
CCC(O)(CC)c1cc(Nc2ccc(NCCc3c[nH]c4ccccc34)cc2)ccn1 [Compound 128]	3160 nM

Compound	IC50
c1ccc(CC(CNc2ccc(Nc3ccncc3)cc2)c2c[nH]c3ccccc23)cc1 (stereo not shown) [Compound 101]	2510 nM
Nc1cccc2c(Nc3ccc(NCCc4c[nH]c5ccccc45)cc3)ccnc12 [Compound 25]	39.8 nM
NC(=O)C(Cc1c[nH]c2ccccc12)Nc1ccc(Nc2ccnc3ccccc23)cc1 (stereo not shown) [Compound 18]	501 nM
CCOc1cc(Nc2ccnc(CO)c2)ccc1NCCc1c[nH]c2cc(OC)ccc12 [Compound 69]	100 nM
Clc1cc(Nc2ccc(NCCc3c[nH]c4ccccc34)cc2)ccn1 [Compound 103]	3980 nM
NCCNCc1cc(Nc2ccc(NCCc3c[nH]c4ccccc34)cc2)ccn1 [Compound 93]	> 10000 nM
COC(=O)CCOCc1cc(Nc2ccc(NCCc3c[nH]c4ccccc34)cc2)ccn1 [Compound 172]	> 10000 nM
CC(NCc1ccccc1)c1cc(Nc2ccc(NCCc3c[nH]c4ccccc34)cc2)ccn1 (stereo not shown) [Compound 140]	2510 nM
Cc1cc(Nc2ccc(NCCc3c[nH]c4ccccc34)cc2)c2cc(CO)ccc2n1 [Compound 19]	200 nM
CCOCc1cc(Nc2ccc(NCCc3c[nH]c4ccccc34)cc2)ccn1 [Compound 134]	1260 nM
COc1cc(Nc2ccnc3ccccc23)ccc1NCCc1c[nH]c2ccccc12 [Compound 16]	39.8 nM
CC(C)(C)OC(=O)N(CCc1cn(C(=O)OC(C)(C)C)c2ccccc12)c1ccc(N(c2ccncc2)c2ccncc2)cc1 [Compound 227]	7940 nM
O=c1cc(Nc2ccc(NCCc3c[nH]c4ccccc34)cc2)cc[nH]1 [Compound 173]	> 10000 nM
c1ccc2c(CCNc3ccc(Nc4ccnc5c4CCC5)cc3)c[nH]c2c1 [Compound 4]	10 nM
OC(c1ccccc1)c1cc(Nc2ccc(NCCc3c[nH]c4ccccc34)cc2)ccn1 (stereo not shown) [Compound 57]	794 nM
Cc1cnccc1Nc1ccc(NCCc2c[nH]c3ccccc23)cc1 [Compound 60]	100 nM
COc1ccc2c(CCNc3ccc(Nc4ccnc5ccccc45)cc3)c[nH]c2c1 [Compound 13]	25.1 nM
CN(C)Cc1cc(Nc2ccc(NCCc3c[nH]c4ccccc34)cc2)ccn1 [Compound 158]	> 10000 nM
CC(=O)c1cc(Nc2ccc(NCCc3c[nH]c4ccccc34)cc2)ccn1 [Compound 105]	7940 nM
O=C(NCc1cc(Nc2ccc(NCCc3c[nH]c4ccccc34)cc2)ccn1)C1CC1 [Compound 130]	1580 nM
Clc1cc(Nc2ccncc2)ccc1NCCc1c[nH]c2ccccc12 [Compound 45]	1000 nM
CNC(C)c1cc(Nc2ccc(NCCc3c[nH]c4ccccc34)cc2)ccn1 (stereo not shown) [Compound 142]	3160 nM
CC(O)C1CCN(C(=O)C(Cc2c[nH]c3ccccc23)Nc2ccc(Nc3ccncc3)cc2)CC1 (stereo not shown) [Compound 225]	158 nM
CCC(=O)NCc1cc(Nc2ccc(NCCc3c[nH]c4ccccc34)cc2)ccn1 [Compound 132]	> 10000 nM
c1ccc2c(CNc3ccc(NCCc4c[nH]c5ccccc45)cc3)ccnc2c1 [Compound 120]	5010 nM

Compound	IC50
COCc1cc(Nc2ccc(NCCc3c[nH]c4ccccc34)cc2)ccn1 [Compound 64]	398 nM
c1ccc(CCNCc2cc(Nc3ccc(NCCc4c[nH]c5ccccc45)cc3)ccn2)cc1 [Compound 163]	3160 nM
c1ccc2c(CCNc3ccc(Nc4ccnc(CNCCN5CCNCC5)c4)cc3)c[nH]c2c1 [Compound 95]	7940 nM
CC(N)c1cc(Nc2ccc(NCCc3c[nH]c4ccccc34)cc2)ccn1 (stereo not shown) [Compound 141]	3980 nM
COCCN(C)C(=O)C(Cc1c[nH]c2ccccc12)Nc1ccc(Nc2ccncc2)cc1 (stereo not shown) [Compound 215]	3160 nM
N#Cc1cc(Nc2ccc(NCCc3c[nH]c4ccccc34)cc2)ccn1 [Compound 86]	> 10000 nM
c1ccc2c(c1)NCC2CCNc1ccc(Nc2ccnc3ccccc23)cc1 (stereo not shown) [Compound 34]	50.1 nM
O=C(C(Cc1c[nH]c2ccccc12)Nc1ccc(Nc2ccncc2)cc1)N1CCCC1CO (stereo not shown) [Compound 208]	> 10000 nM
CCOC(=O)/C=C/c1cnccc1Nc1ccc(NCCc2c[nH]c3ccccc23)cc1 [Compound 126]	> 10000 nM
CC(=O)NCc1cc(Nc2ccc(NCCc3c[nH]c4ccccc34)cc2)ccn1 [Compound 206]	3160 nM
O=C(C(Cc1c[nH]c2ccccc12)Nc1ccc(Nc2ccncc2)cc1)N1CCC(CCO)C1 (stereo not shown) [Compound 210]	> 10000 nM
c1ccc2c(CCNc3ccc(Nc4ccnc5[nH]ccc45)cc3)c[nH]c2c1 [Compound 198]	1260 nM
Clc1cccc(CC(CNc2ccc(Nc3ccncc3)cc2)c2c[nH]c3ccccc23)c1 (stereo not shown) [Compound 199]	2000 nM
CCNC(C)c1cc(Nc2ccc(NCCc3c[nH]c4ccccc34)cc2)ccn1 (stereo not shown) [Compound 143]	3160 nM
COC(=O)c1cc(Nc2ccc(NCCc3c[nH]c4ccccc34)cc2)cc(C(=O)OC)n1 [Compound 109]	> 10000 nM
c1ccc(COc2cc(Nc3ccncc3)ccc2NCCc2c[nH]c3ccccc23)cc1 [Compound 61]	316 nM
CN(C)CCNCc1cc(Nc2ccc(NCCc3c[nH]c4ccccc34)cc2)ccn1 [Compound 59]	398 nM
O=C(NCCNCc1cc(Nc2ccc(NCCc3c[nH]c4ccccc34)cc2)ccn1)OCc1ccccc1 [Compound 92]	3160 nM
N#CCCNCc1cc(Nc2ccc(NCCc3c[nH]c4ccccc34)cc2)ccn1 [Compound 162]	3160 nM
Cc1[nH]c2ccccc2c1CCNc1ccc(Nc2ccncc2)cc1 [Compound 77]	3160 nM
Cc1cccc2c(Nc3ccc(NCCc4c[nH]c5ccccc45)cc3)ccnc12 [Compound 22]	20 nM
c1cnc2[nH]cc(CCNc3ccc(Nc4ccncc4)cc3)c2c1 [Compound 190]	3980 nM
Clc1ccc2c(CCNc3ccc(Nc4ccnc5ccccc45)cc3)c[nH]c2c1 [Compound 26]	100 nM
